{
  "source": "patent US20260125387A1",
  "about": "“(R)-N-ETHYL-5-FLUORO-N-ISOPROPYL-2-((5-(2-(6-((2-METHOXYETHYL)(METHYL)AMINO)-2-METHYLHEXAN-3-YL)-2,6-DIAZASPIRO[3.4]OCTAN-6-YL)-1,2,4-TRIAZIN-6-YL)OXY)BENZAMIDE BESYLATE SALT” (Janssen Pharmaceutica NV, priority 2021, published 2026)",
  "key": {"[1]": {"system": "human pluripotent stem cell-derived cardiomyocytes (iCell Cardiomyocytes2)", "assay": "Ca2+-fluorescence assay in hSC-derived cardiomyocytes (CTCM human), hazard scoring", "type": "cell-based", "set-up": "key to Hazard scoring, Color @ 0.1 μM / Hazard scoring, Color @ 0.2 μM / Hazard scoring, Color @ 0.5 μM / Hazard scoring, Color @ 1 μM / Hazard scoring, Color @ 2.5 μM / Hazard scoring, Color @ 5 μM / Hazard scoring, Color @ 0.3 μM / Hazard scoring, Color @ 3 μM / Hazard scoring, Color @ 10 μM: Green: No concern; Yellow: Low concern; Red: High concern; Black: Very high concern due to arrhythmic events", "description": "7) Cardio-Electrophysiological Effects of the Testing Compounds in Synchronously Beating Human Pluripotent Stem Cell-Derived Cardiomyocytes (hSC-CMs) Using a Ca^2+-Fluorescence Assay (CTCM human)\nCompounds were tested in the 96-well plates.\nCompounds were tested at 0.1 μM, 0.2 μM, 0.5 μM, 1 μM, 2.5 μM and 5 μM (n=4 per dose) on Cor.4U®-Cardiomyocytes or on iCell® Cardiomyocytes2.\nAlternatively, compounds were tested at 0.1 μM, 0.3 μM; 1 μM, 3 μM, 10 μM and 30 μM (n=4 per dose) mostly on iCell® Cardiomyocytes2.\nVehicle control: Dimethylsulfoxide (DMSO). The solutions of the compound in DMSO or its solvent (final concentration of 0.1% DMSO; n=8).\nTested compounds were dissolved in DMSO at 1000-fold the intended concentrations. A compound “mother-plate” was made, containing the test compounds and positive and negative controls at 1000-fold the final concentrations. At the experiment day, these stock solutions were diluted with Tyrode (Sigma), supplemented with 10 mM HEPES (Gibco), to 2-fold the intended concentration (in round bottom compound plates). Final DMSO concentration in test solutions and vehicle control was 0.1%.\nhSC-CMs (Cor.4U® Cardiomyocytes) were obtained from CDI (Ncardia, Germany). Cells are pre-plated and seeded in fibronectin-coated 96-well plates at a density suited to form a monolayer and maintained in culture in a stage incubator (37° C., 5% CO2), according to the instructions of the cell provider.\nSecond line hSC derived cardiomyocyte called iCell® Cardiomyocytes2 were purchased from FUJIFILM Cellular Dynamics (USA). The experiments with test drugs are carried out 5 to 7 days after plating the cells onto the plate to have a living, beating monolayer of hiPSC-derived cardiomyocytes. The beating monolayer in 96-well-plates are normally taken from 2 Vials of frozen iCell® Cardiomyocytes2 (≈5 million cells/vial), which will be plated onto three 96-well plates (≈50K/well).\nAt least one hour before the start of the experiments the normal cell medium was replaced with Tyrode solution with Calcium dye (see below).\nCal 520 dye (AAT Bioquest) was dissolved in 11 ml of Tyrode supplemented with 10 mM HEPES and warmed up to 37 C before adding to the cells.\n35 μl cell culture medium was removed from each well and replaced with 35 μl of pre-warmed Cal 520 dye solution and cell plate was incubated for 45 min at 37° C./5% CO2. Cells were incubated for 5 min at 37° C.\nSpontaneous electrical activity is recorded, using Cal520™ (AAT Bioquest) calcium fluorescence-dye signaling. This dye integrates the total intracellular calcium activity over the whole well. A bottle of Cal520 dye (50 μg, MW: 1103/mol) is dissolved with 50 μl DMSO as a stock solution of 0.9 mM. 50 μL of the stock solution of the dye was added to 10 ml Tryodes solution to have dye concentration of 4.5 μM. Subsequently, 35 μl of this dye solution was added into each well, to have a final dye concentration of 1.58 μM. The current dye protocol on this CTCM human assay was established recently (Ivan Kopljar et al, Journal of Pharmacological and toxicological methods 2018. 91: 80-86; Lu et al., Tox Sci 2019. 170 (2): 345-356).\nFluorescent signals (Ca^2+ transient morphology) were measured using the Functional Drug Screen System (FDSS/pCell; Hamamatsu, Japan) and the recordings were subsequently analyzed off-line, using appropriate software e.g. Notocord.\nThe cell plate was loaded into the FDSS/pCell for a test run: Ca^2+ transients were measured for 4 minutes to check for synchronous beating of the cardiomyocytes in each well. All 96 wells were measured simultaneously (sampling interval: 0.06 s, short exposure time: 10 ms; excitation wavelength 480 nm; emission wavelength 540 nm; FDSS/pCell warmed to 37° C.).\nDuring the compound addition step, 100 μl of the respective double-concentrated test solutions was pipetted into each well simultaneously.\nData were analyzed off-line using appropriate software e.g. Notocord-Hem (version 4.3). […]"}, "[2]": {"system": "OCI-AML3 tumors (disseminated, IV)", "assay": "Efficacy study in disseminated OCI-AML3 model (survival)", "type": "in vivo, mouse", "conditions": "vehicle control 38.5 days", "description": "Doses were adjusted by individual body weight each day.\nFemale SCID beige mice (CB17.Cg-PrkdcscidLystbg-J/Crl/−) were used when they were approximately 6 to 8 weeks of age and weighed approximately 25 g. All animals could acclimate and recover from any shipping-related stress for a minimum of 7 days prior to experimental use. Autoclaved water and irradiated food were provided ad libitum, and the animals were maintained on a 12 hour light and dark cycle. Cages, bedding, and water bottles were autoclaved before use and changed weekly. The tissue culture and cell injection reagents are summarized below in Table 14.\nHuman AML cell line OCI-AML3 was cultured at 37° C., 5% CO2 in the indicated complete culture media (MEM Alpha+20% HI—FBS (Heat-Inactivated Fetal Bovine Serum)+2 mM L-glutamine+50 ug/ml Gentamycin). […]\nAnimals were monitored daily for clinical signs related to either compound toxicity or tumor burden (i.e., hind limb paralysis, lethargy, etc.).\nMedian survival was determined utilizing Kaplan-Meier survival analysis. […]\nStatistical significance for body weights was evaluated as described above. Statistical significance was evaluated for Kaplan-Meier survival plots comparing therapeutic treatment group vs. appropriate vehicle-treated control using log-rank (Mantel-Cox) test in R software version 3.4.2. […]"}, "[3]": {"system": "MOLM-14 cells", "assay": "Proliferation assay (spheroid, day 8 confluence), MOLM-14", "type": "cell-based", "conditions": "Homo sapiens, 8 days, read-out: spheroid assay_OneTime MOLM-14 IC50"}, "[4]": {"assay": "Stability experiments under stress conditions (UHPLC purity, XRD)", "type": "physicochemical", "conditions": "for XRD after stress: Reference Crystalline, form A"}, "[5]": {"system": "KO-52 cells", "assay": "Proliferation assay (spheroid, day 8 confluence), KO-52 control cell line", "type": "cell-based", "conditions": "Homo sapiens; 8 days; read-out: spheroid assay_OneTime KO-52 IC50", "description": "The anti-proliferative effect of menin/MLL protein/protein interaction inhibitor test compounds was assessed in human leukemia cell lines. The cell line MOLM-14 harbors a MLL translocation and expresses the MLL fusion protein MLL-AF9, respectively, as well as the wildtype protein from the second allele. OCI-AML3 cells that carry the NPM1c gene mutation were also tested. […] KO-52 was used as a control cell line containing two MLL (KMT2A) wildtype alleles in order to exclude compounds that display general cytotoxic effects.\nKO-52 and OCI-AML3 cell lines were propagated in alpha-MEM (Sigma Aldrich) supplemented with 20% heat-inactivated fetal bovine serum (HyClone), 2 mM L-glutamine (Sigma Aldrich) and 50 μg/ml gentamycin (Gibco).\nIn order to assess the anti-proliferative effects, 200 MOLM-14 cells, 200 OCI-AML3 cells or 300 KO-52 cells were seeded in 200 μl media per well in 96-well round bottom, ultra-low attachment plates (Costar, catalogue number 7007). […] Spheroid like growth was measured in real-time by live-cell imaging (IncuCyteZOOM, Essenbio, 4× objective) acquiring images at day 8. Confluence (%) as a measure of spheroid size was determined using an integrated analysis tool.\nIn order to determine the effect of the test compounds over time, the confluence in each well as a measure of spheroid size, was calculated. […]"}, "[6]": {"conditions": "iCell Cardiomyocytes2, 30 min incubation"}, "[7]": {"conditions": "efficacious dose in mouse xenograft models of 30 mpk, (mouse, human)"}},
  "note": "Where a name gives a salt, the structure may show the parent alone.",
  "data": [
    {"smiles": "CCN(C(=O)c1cc(F)ccc1Oc1nncnc1N1CCC2(C1)CN([C@H](CCCN(C)CCOC)C(C)C)C2)C(C)C", "note": "[Compound A1, (R)—N-ethyl-5-fluoro-N-isopropyl-2-((5-(2-(6-((2-methoxyethyl)(methyl)-amino)-2-methylhexan-3-yl)-2,6-diazaspiro[3.4]octan-6-yl)-1,2,4-triazin-6-yl)oxy)-benzanilide 0.2 HCl·x H2O (x=2-3)]", "values": [
      {"measurement": "Hazard scoring, Color @ 0.1 μM", "setting": "[1]; [6]", "result": "Green"},
      {"measurement": "Hazard scoring, Color @ 0.3 μM", "setting": "[1]; 0.3 μM, iCell Cardiomyocytes2, 30 min incubation", "result": "Green"},
      {"measurement": "Hazard scoring, Color @ 1 μM", "setting": "[1]; [6]", "result": "Green"},
      {"measurement": "Hazard scoring, Color @ 3 μM", "setting": "[1]; 3 μM, iCell Cardiomyocytes2, 30 min incubation", "result": "Green"},
      {"measurement": "Hazard scoring, Color @ 10 μM", "setting": "[1]; 10 μM, iCell Cardiomyocytes2, 30 min incubation", "result": "Green"},
      {"measurement": "Hazard scoring, Color @ 30 μM", "setting": "[1]; 30 μM, iCell Cardiomyocytes2, 30 min incubation", "result": "yellow"},
      {"measurement": "Margin CTCM human 10 μM vs free Cmax", "setting": "[1]; [7]", "result": "> 16"},
      {"measurement": "Margin CTCM human 30 μM vs free Cmax", "setting": "[1]; [7]", "result": "> 45"}
    ]},
    {"smiles": "CCN(C(=O)c1cc(F)ccc1Oc1nncnc1N1CCC2(C1)CN([C@H](CCCN(C)CCOC)C(C)C)C2)C(C)C", "note": "[Compound A3, (R)—N-ethyl-5-fluoro-N-isopropyl-2-((5-(2-(6-((2-methoxyethyl) (methyl)amino)-2-methylhexan-3-yl)-2,6-diazaspiro[3.4]octan-6-yl)-1,2,4-triazin-6-yl)oxy) benzamide oxalate]", "values": [
      {"measurement": "Hazard scoring, Color @ 0.1 μM", "setting": "[1]; [6]", "result": "Green"},
      {"measurement": "Hazard scoring, Color @ 0.2 μM", "setting": "[1]; 0.2 μM, iCell Cardiomyocytes2, 30 min incubation", "result": "Green"},
      {"measurement": "Hazard scoring, Color @ 0.5 μM", "setting": "[1]; 0.5 μM, iCell Cardiomyocytes2, 30 min incubation", "result": "Green"},
      {"measurement": "Hazard scoring, Color @ 1 μM", "setting": "[1]; [6]", "result": "Green"},
      {"measurement": "Hazard scoring, Color @ 2.5 μM", "setting": "[1]; 2.5 μM, iCell Cardiomyocytes2, 30 min incubation", "result": "Green"},
      {"measurement": "Hazard scoring, Color @ 5 μM", "setting": "[1]; 5 μM, iCell Cardiomyocytes2, 30 min incubation", "result": "Green"},
      {"measurement": "median days of survival", "setting": "[2]; 30 mg/kg PO daily for 28 days", "result": 75.5, "unit": "days"},
      {"measurement": "median days of survival", "setting": "[2]; 50 mg/kg PO daily for 28 days", "result": 58.5, "unit": "days"}
    ]},
    {"smiles": "CCN(C(=O)c1cc(F)ccc1Oc1nncnc1N1CCC2(C1)CN([C@H](CCCN(C)CCOC)C(C)C)C2)C(C)C", "note": "[Compound A4, (R)—N-ethyl-5-fluoro-N-isopropyl-2-((5-(2-(6-((2-methoxyethyl)(methyl)amino)-2-methylhexan-3-yl)-2,6-diazaspiro[3.4]octan-6-yl)-1,2,4-triazin-6-yl)oxy)benzamide bis-besylate salt hydrate]", "values": [
      {"measurement": "IC50", "setting": "[3]", "result": 8, "unit": "nM"},
      {"measurement": "Besylate salt Purity after stress", "setting": "[4]; 50° C./10% RH, 7 days, Reference 99.65", "result": 99.64},
      {"measurement": "Besylate salt Purity after stress", "setting": "[4]; 50° C./10% RH, 14 days, Reference 99.65", "result": 99.62},
      {"measurement": "Besylate salt Purity after stress", "setting": "[4]; 50° C./30% RH, 21 days, Reference 99.21", "result": 99.32},
      {"measurement": "XRD after stress", "setting": "[4]; 50° C./30% RH, 21 days", "result": "Complies to ref"},
      {"measurement": "Besylate salt Purity after stress", "setting": "[4]; 50° C./50% RH, 7 days, Reference 99.65", "result": 99.65},
      {"measurement": "Besylate salt Purity after stress", "setting": "[4]; 50° C./50% RH, 14 days, Reference 99.65", "result": 99.66},
      {"measurement": "Besylate salt Purity after stress", "setting": "[4]; 50° C./75% RH, 21 days, Reference 99.21", "result": 99.36},
      {"measurement": "XRD after stress", "setting": "[4]; 50° C./75% RH, 21 days", "result": "Complies to ref"},
      {"measurement": "chemical and physical stability (UHPLC, XRD)", "setting": "[4]; under evaluated stress conditions", "result": "chemically and physically stable"},
      {"measurement": "IC50", "setting": "[5]", "result": 5.44, "unit": "µM"}
    ]}
  ]
}
